Data from US10280160B2, “Phthalazinone compounds and methods for the treatment of cystic fibrosis” (FLATLEY DISCOVERY LAB, LLC, priority 2013, dated 2019).

Each compound was assayed against human F508del CFTR (Homo sapiens (Human), UniProt P13569, DEL508-508) (assay: CFTR-YFP High Throughput Assay (YFP halide flux, FRT cells)). Conditions: EMax normalized to the positive control; FRT cells expressing human F508del CFTR and YFP; read-out: % Efficacy.
Type: cell-based
Description: Assays for Detecting and Measuring the Effect of Compounds on F508del-CFTR Channels CFTR-YFP Assay-CFTR Corrector Protocol:
This protocol is designed to selectively screen small molecule compounds for F508del CFTR corrector activities in the YFP (yellow fluorescent protein) flux assay. In this protocol, the cells are incubated with testing compounds for 24 hours, washed with PBS, stimulated with forskolin and a standard potentiator, and fluorescence in each plate well is measured kinetically read on a 384-well plate reader, such as the Hamamatsu FDSS-6000.
YFP fluorescence intensity values are acquired at high speed before and after iodide buffer is injected to the assay cells. Iodide enters the cells via active CFTR channels in the plasma membrane, and quenches the YFP fluorescence. The rate of fluorescence quenching is proportionate to the total CFTR activity in the cell membrane. F508del CFTR correctors increase the number of CFTR molecules in the testing cell plasma membrane, and thereby accelerate YFP quenching.
This method was initially developed for bench top plate readers (Galietta, J, Jayaraman, S and Verkman, A S. Cell-based assay for high-throughput quantitative screening of CFTR chloride transport agonists. Am. J. Physiol. Cell Physiol. (2001), 281: C173), and was adapted to the HTS format (Sui J, Cotard S, Andersen J, Zhu P, Staunton J, Lee M, Lin S. Optimization of a Yellow fluorescent protein-based iodide influx high-throughput screening assay for cystic fibrosis transmembrane conductance regulator (CFTR) modulators. Assay Drug Dev Technol. (2010), 8: 656-668).
Fisher Rat Thyroid (FRT) cells stably expressing both human F508del CFTR and a halide-sensitive yellow fluorescent protein (YFP-H148Q/I152L 25,22) (Galietta et al. Am. J. Physiol Cell Physiol 281(5), C1734, 2001) were cultured on plastic surface in Coon's modified Ham's F12 medium supplemented with FBS 10%, L-glutamine 2 mM, penicillin 100 U/ml, and streptomycin 100 μg/ml. G418 (0.75-1.0 mg/ml) and zeocin (3.2 ug/ml) were used for selection of FRT cells expressing F508del CFTR and YFP. For primary screening, FRT cells were plated into 384-well black wall, transparent bottom microtiter plates (Costar; Corning Inc.) at a cell density of 20,000-40,000 per well. Test compound was applied to the cells at varying concentrations ranging from 2 nM-40 μM in either a 2-fold or 3-fold dilution series. Cells were incubated in a cell culture incubator at 37° C. with 5% CO2 for 24-26 h. Assay plates were washed with DPBS media (Thermo, cat # SH30028.02) to remove unbound cells and compound. Stimulation media (25 μL) containing 20 μM Forskolin & 30 μM P3 [6-(Ethyl-phenyl-sulfonyl)-4-oxo-1,4-dihydro-quinoline-3-carboxylic acid 2-methoxy-benzylamide] in Hams F-12 coon's modified media was added to the plate wells and incubated at room temperature for 60-120 min. 25 μL of HEPES-PBS-I buffer (10 mM HEPES, 1 mM MgCl2, 3 mM KCl, 1 mM CaCl2, 150 mM NaI) was then added and fluorescence quench curves (Excitation 500 nm/Emission 540 nm; exposure 136 ms) were immediately recorded on an FDSS-6000 plate reader (Hamamatsu). Quench rates were derived from least squares fitting of the data as described by Sui et al (2010).
CFTR-YFP Assay-CFTR Potentiator Protocol:
This protocol is designed to selectively screen small molecule compounds for F508del CFTR potentiator activities in the YFP (yellow fluorescent protein) flux assay. Such compounds act acutely to stimulate CFTR already expressed on the membrane surface. In this protocol, the cells are incubated at 27° C. for 24 hours to homogeneously boost F508del CFTR expression in the cell membrane (low temperature correction), washed with PBS, treated with test compound, and CFTR activity is stimulated with forskolin for 1-2 hr. Measurement of ion flux is initiated by addition of iodide-containing buffer, and YFP quenching is kinetically recorded using a 384-well plate reader, such as the Hamamatsu FDSS-6000. […]

Chain of human F508del CFTR (P13569 other isoform, or with tags, fused parts or gaps del F508-F508): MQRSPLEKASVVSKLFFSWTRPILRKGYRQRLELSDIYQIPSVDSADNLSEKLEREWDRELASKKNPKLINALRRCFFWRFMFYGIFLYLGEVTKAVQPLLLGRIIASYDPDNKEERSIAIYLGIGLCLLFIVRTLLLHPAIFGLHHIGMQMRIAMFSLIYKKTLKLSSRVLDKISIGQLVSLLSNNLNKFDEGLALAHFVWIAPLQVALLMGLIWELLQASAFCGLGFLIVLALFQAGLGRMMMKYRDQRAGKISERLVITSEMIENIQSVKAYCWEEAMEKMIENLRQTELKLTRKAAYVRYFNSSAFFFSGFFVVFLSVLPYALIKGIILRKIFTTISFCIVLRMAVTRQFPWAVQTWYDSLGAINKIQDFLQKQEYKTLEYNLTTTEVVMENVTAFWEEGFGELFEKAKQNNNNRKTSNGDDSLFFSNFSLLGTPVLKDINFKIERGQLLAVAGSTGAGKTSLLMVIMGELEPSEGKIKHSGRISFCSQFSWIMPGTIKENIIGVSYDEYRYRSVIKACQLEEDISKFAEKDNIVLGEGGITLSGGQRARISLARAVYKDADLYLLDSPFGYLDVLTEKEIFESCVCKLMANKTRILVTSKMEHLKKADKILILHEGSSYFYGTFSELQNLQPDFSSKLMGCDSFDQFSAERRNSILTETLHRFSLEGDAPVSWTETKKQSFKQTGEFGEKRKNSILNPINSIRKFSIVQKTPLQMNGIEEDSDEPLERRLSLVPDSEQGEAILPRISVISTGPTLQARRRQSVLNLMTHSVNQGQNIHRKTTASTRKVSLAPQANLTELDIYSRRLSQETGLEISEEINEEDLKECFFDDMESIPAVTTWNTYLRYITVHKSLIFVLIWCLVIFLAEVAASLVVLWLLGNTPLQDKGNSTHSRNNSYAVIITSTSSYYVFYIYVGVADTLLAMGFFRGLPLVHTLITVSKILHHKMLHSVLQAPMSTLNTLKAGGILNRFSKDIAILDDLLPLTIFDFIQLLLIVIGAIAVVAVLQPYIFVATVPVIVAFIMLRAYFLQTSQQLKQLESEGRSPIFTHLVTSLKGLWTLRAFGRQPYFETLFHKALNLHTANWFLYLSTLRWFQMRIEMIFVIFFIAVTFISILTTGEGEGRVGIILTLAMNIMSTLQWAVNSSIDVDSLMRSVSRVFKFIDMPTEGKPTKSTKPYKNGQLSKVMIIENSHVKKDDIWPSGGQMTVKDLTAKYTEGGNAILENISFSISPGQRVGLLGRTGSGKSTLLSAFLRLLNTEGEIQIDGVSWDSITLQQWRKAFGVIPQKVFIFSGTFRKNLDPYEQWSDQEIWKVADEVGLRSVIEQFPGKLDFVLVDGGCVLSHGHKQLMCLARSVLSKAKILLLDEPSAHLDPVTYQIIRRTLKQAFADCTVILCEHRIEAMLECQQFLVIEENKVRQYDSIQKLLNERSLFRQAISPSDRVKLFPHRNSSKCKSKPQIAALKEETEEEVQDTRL

| Emax [%] | Compound |
| --- | --- |
| > 80 | [2H]C([2H])([2H])N(C(=O)Cn1nc(-c2cccc(Cl)c2)c2ccc(OC)cc2c1=O)c1ccc2nc(C)oc2c1 [Example 6, 2-(4-(3-chlorophenyl)-7-methoxy-1-oxophthalazin-2(1H)-yl)-N-(methyl-d3)-N-(2-methylbenzo[d]oxazol-6-yl)acetamide] |
| > 80 | [2H]C([2H])([2H])N(C(=O)Cn1nc(-c2cccc(F)c2)c2ccc(OCC)cc2c1=O)c1ccc2nc(C)oc2c1 [Example 22, 2-(7-ethoxy-4-(3-fluorophenyl)-1-oxophthalazin-2(1H)-yl)-N-(methyl-d3)-N-(2-methylbenzo[d]oxazol-6-yl)acetamide] |
| 30 to 80 | CCOc1cc2c(=O)n(CC(=O)N(C)c3ccc4nc(C)oc4c3)nc(-c3cccc(F)c3)c2cc1Cl [Example 30] |
| > 80 | Cc1nc2ccc(N(C)C(=O)Cn3nc(-c4cccc(Cl)c4)c4ccc(OC5CCCCC5)cc4c3=O)cc2o1 [Example 26, 2-(4-(3-chlorophenyl)-7-(cyclohexyloxy)-1-oxophthalazin-2(1H)-yl)-N-methyl-N-(2-methylbenzo[d]oxazol-6-yl)acetamide] |
| > 80 | COc1ccc2c(-c3cccc(Cl)c3)nn(CC(=O)N(C)c3ccc4nc(C)oc4c3)c(=O)c2c1 [Example 4, 2-(4-(3-chlorophenyl)-7-methoxy-1-oxophthalazin-2(1H)-yl)-N-methyl-N-(2-methylbenzo[d]oxazol-6-yl)acetamide] |
| 30 to 80 | COc1cc2c(=O)n(CC(=O)N(C)c3ccc4nc(C)oc4c3)nc(-c3cccc(F)c3)c2cc1Cl [Example 10, 2-(6-chloro-4-(3-fluorophenyl)-7-methoxy-1-oxophthalazin-2(1H)-yl)-N-methyl-N-(2-methylbenzo[d]oxazol-6-yl)acetamide] |
| > 80 | COc1cc2c(=O)n(CC(=O)N(C)c3ccc4nc(C)oc4c3)nc(-c3cccc(Cl)c3)c2cc1Cl [Example 11, 2-(6-chloro-4-(3-chlorophenyl)-7-methoxy-1-oxophthalazin-2(1H)-yl)-N-methyl-(2-methylbenzo[d]oxazol-6-yl)acetamide] |
| > 80 | Cc1nc2ccc(N(C)C(=O)Cn3nc(-c4cccc(F)c4)c4ccc(O)cc4c3=O)cc2o1 [Example 13, 2-(4-(3-fluorophenyl)-7-hydroxy-1-oxophthalazin-2(1H)-yl)-N-methyl-N-(2-methylbenzo[d]oxazol-6-yl)acetamide] |
| > 80 | [2H]C([2H])(C)N(C(=O)Cn1nc(-c2cccc(Cl)c2)c2ccc(OC)cc2c1=O)c1ccc2nc(C)oc2c1 [Example 7, 2-(4-(3-chlorophenyl)-7-methoxy-1-oxophthalazin-2(1H)-yl)-N-(ethyl-1,1-d2)-N-(2-methylbenzo[d]oxazol-6-yl)acetamide] |
| > 80 | Cc1nc2ccc(N(C)C(=O)Cn3nc(-c4cccc(F)c4)c4ccc(OC5CCOCC5)cc4c3=O)cc2o1 [Example 27, 2-(4-(3-fluorophenyl)-1-oxo-7-((tetrahydro-2H-pyran-4-yl)oxy)phthalazin-2(1H)-yl)-N-methyl-N-(2-methylbenzo[d]oxazol-6-yl)acetamide] |
| > 80 | Cc1nc2ccc(N(C)C(=O)Cn3nc(-c4cccc(F)c4)c4ccc(OC5CCCCC5)cc4c3=O)cc2o1 [Example 28, 2-(7-(cyclohexyloxy)-4-(3-fluorophenyl)-1-oxophthalazin-2(1H)-yl)-N-methyl-N-(2-methylbenzo[d]oxazol-6-yl)acetamide] |
| > 80 | COc1ccc2c(-c3cccc(F)c3)nn(CC(=O)N(c3ccc4nc(C)oc4c3)C3CC3)c(=O)c2c1 [Example 12, N-cyclopropyl-2-(4-(3-fluorophenyl)-7-methoxy-1-oxophthalazin-2(1H)-yl)-N-(2-methylbenzo[d]oxazol-6-yl)acetamide] |
| > 80 | Cc1nc2ccc(N(C)C(=O)Cn3nc(-c4cccc(Cl)c4)c4ccc(OC(C)C)cc4c3=O)cc2o1 [Example 25, 2-(4-(3-chlorophenyl)-7-isopropoxy-1-oxophthalazin-2(1H)-yl)-N-methyl-N-(2-methylbenzo[d]oxazol-6-yl)acetamide] |
| 30 to 80 | COc1ccc2c(-c3cccc(F)c3)nn(CC(=O)N(C)c3ccc4nc(C)oc4c3)c(=O)c2c1 [Example 3, 2-(4-(3-fluorophenyl)-7-methoxy-1-oxophthalazin-2(1H)-yl)-N-methyl-N-(2-methylbenzo[d]oxazol-6-yl)acetamide] |
| > 80 | CCN(C(=O)Cn1nc(-c2cccc(Cl)c2)c2ccc(OC)cc2c1=O)c1ccc2nc(C)oc2c1 [Example 9, 2-(4-(3-chlorophenyl)-7-methoxy-1-oxophthalazin-2(1H)-yl)-N-ethyl-N-(2-methylbenzoyl[d]oxazol-6-yl)acetamide] |
| > 80 | Cc1nc2ccc(N(C)C(=O)Cn3nc(-c4cccc(Cl)c4)c4ccccc4c3=O)cc2o1 [Example 1, 2-(4-(3-chlorophenyl)-1-oxophthalazin-2(1H)-yl)-N-methyl-N-(2-methylbenzo[d]oxazol-6-yl)acetamide] |
| > 80 | CCOc1ccc2c(-c3cccc(F)c3)nn(CC(=O)N(C)c3ccc4nc(C)oc4c3)c(=O)c2c1 [Example 17, 2-(7-ethoxy-4-(3-fluorophenyl)-1-oxophthalazin-2(1H)-yl)-N-methyl-N-(2-methylbenzo[d]oxazol-6-yl)acetamide] |
| > 80 | Cc1nc2ccc(N(C)C(=O)Cn3nc(-c4cccc(Cl)c4)c4ccc(O)cc4c3=O)cc2o1 [Example 16, 2-(4-(3-chlorophenyl)-7-hydroxy-1-oxophthalazin-2(1H)-yl)-N-methyl-N-(2-methylbenzo[d]oxazol-6-yl)acetamide] |
| > 80 | Cc1nc2ccc(N(C(=O)Cn3nc(-c4cccc(Cl)c4)c4ccc(O)cc4c3=O)C3CC3)cc2o1 [Example 15, 2-(4-(3-chlorophenyl)-7-hydroxy-1-oxophthalazin-2(1H)-yl)-N-cyclopropyl-N-(2-methylbenzo[d]oxazol-6-yl)acetamide] |
| > 80 | COc1ccc2c(-c3cccc(Cl)c3)nn(CC(=O)N(c3ccc4nc(C)oc4c3)C3CC3)c(=O)c2c1 [Example 5, 2-(4-(3-chlorophenyl)-7-methoxy-1-oxophthalazin-2(1H)-yl)-N-cyclopropyl-N-(2-methylbenzo[d]oxazol-6-yl)acetamide] |
| 30 to 80 | [2H]C([2H])([2H])N(C(=O)Cn1nc(-c2cccc(Cl)c2)c2ccc(OCC3CC3)cc2c1=O)c1ccc2nc(C)oc2c1 [Example 23, 2-(4-(3-chlorophenyl)-7-(cyclopropylmethoxy)-1-oxophthalazin-2(1H)-yl)-N-(methyl-d3)-N-(2-methylbenzo[d]oxazol-6-yl)acetamide] |
| > 80 | CCOc1ccc2c(-c3cccc(Cl)c3)nn(CC(=O)N(c3ccc4nc(C)oc4c3)C3CC3)c(=O)c2c1 [Example 18, 2-(4-(3-chlorophenyl)-7-ethoxy-1-oxophthalazin-2(1H)-yl)-N-cyclopropyl-N-(2-methylbenzo[d]oxazol-6-yl)acetamide] |
| > 80 | Cc1nc2ccc(N(C)C(=O)Cn3nc(-c4cccc(Cl)c4)c4ccc(OCC5CC5)cc4c3=O)cc2o1 [Example 24, 2-(4-(3-chlorophenyl)-7-(cyclopropylmethoxy)-1-oxophthalazin-2(1H)-yl)-N-methyl-N-(2-methylbenzo[d]oxazol-6-yl)acetamide] |
| 30 to 80 | Cc1nc2ccc(N(C(=O)Cn3nc(-c4cccc(F)c4)c4ccc(O)cc4c3=O)C3CC3)cc2o1 [Example 14, N-cyclopropyl-2-(4-(3-fluorophenyl)-7-hydroxy-1-oxophthalazin-2(1H)-yl)-N-(2-methylbenzo[d]oxazol-6-yl)acetamide] |
